Test results reported in patent US20070243215A1, “Adjuvant for Dna Vaccines” (priority 2004, published 2007).

System: N202/1A tumor cells
Experiment: Serum transfer and tumor cell challenge
Type: in vivo
Settings: 150 μL pooled serum from treated donor mice; challenge 24 h later subcutaneously with 10^5 N202/1A tumor cells
Procedure: Animals were treated as in Example 1 for each of the following groups: (1) Immunized with pCMV-ECD-TM, not treated with IRM (HER-2/neu); (2) Immunized with pCMV-ECD-TM, treated with IRM2 (IRM+HER-2/neu); or (3) untreated (Control). Two weeks after the immunization period was completed, sera were harvested from the animals and pooled among animals receiving the same treatment.
150 μL of pooled serum was injected into eight-week old animals (5 animals/treatment serum). Twenty-four hours after administration of the serum, each mouse was challenged with subcutaneously with 10^5 N202/1A tumor cells and monitored to register the development of tumors.

## CC(C)Cn1cnc2c(N)nc3ccccc3c21 [IRM2, 1-(2-methylpropyl)-1H-imidazo[4,5-c]quinolin-4-amine]
  percentage of recipient mice remaining tumor free (protection against tumor development): An even greater percentage
